Measured values reported in PubChem BioAssay AID403 (SGCOxCompounds, 2006).

Molecular target: Receptor-type tyrosine-protein phosphatase eta (Homo sapiens) (UniProt Q12913)
Assay: inhibition of receptor phosphatase PTPRJ activity – biochemical, human, DiFMUP fluorescence (AID 403)
Conditions: recombinant PTPRJ, 25 C, at 50 µM, enzyme 0.05 ng/mL, DTT 5 mM, stronger effect = higher value

Receptor-type tyrosine-protein phosphatase eta (Homo sapiens), sequence (Q12913 whole entry, looked up): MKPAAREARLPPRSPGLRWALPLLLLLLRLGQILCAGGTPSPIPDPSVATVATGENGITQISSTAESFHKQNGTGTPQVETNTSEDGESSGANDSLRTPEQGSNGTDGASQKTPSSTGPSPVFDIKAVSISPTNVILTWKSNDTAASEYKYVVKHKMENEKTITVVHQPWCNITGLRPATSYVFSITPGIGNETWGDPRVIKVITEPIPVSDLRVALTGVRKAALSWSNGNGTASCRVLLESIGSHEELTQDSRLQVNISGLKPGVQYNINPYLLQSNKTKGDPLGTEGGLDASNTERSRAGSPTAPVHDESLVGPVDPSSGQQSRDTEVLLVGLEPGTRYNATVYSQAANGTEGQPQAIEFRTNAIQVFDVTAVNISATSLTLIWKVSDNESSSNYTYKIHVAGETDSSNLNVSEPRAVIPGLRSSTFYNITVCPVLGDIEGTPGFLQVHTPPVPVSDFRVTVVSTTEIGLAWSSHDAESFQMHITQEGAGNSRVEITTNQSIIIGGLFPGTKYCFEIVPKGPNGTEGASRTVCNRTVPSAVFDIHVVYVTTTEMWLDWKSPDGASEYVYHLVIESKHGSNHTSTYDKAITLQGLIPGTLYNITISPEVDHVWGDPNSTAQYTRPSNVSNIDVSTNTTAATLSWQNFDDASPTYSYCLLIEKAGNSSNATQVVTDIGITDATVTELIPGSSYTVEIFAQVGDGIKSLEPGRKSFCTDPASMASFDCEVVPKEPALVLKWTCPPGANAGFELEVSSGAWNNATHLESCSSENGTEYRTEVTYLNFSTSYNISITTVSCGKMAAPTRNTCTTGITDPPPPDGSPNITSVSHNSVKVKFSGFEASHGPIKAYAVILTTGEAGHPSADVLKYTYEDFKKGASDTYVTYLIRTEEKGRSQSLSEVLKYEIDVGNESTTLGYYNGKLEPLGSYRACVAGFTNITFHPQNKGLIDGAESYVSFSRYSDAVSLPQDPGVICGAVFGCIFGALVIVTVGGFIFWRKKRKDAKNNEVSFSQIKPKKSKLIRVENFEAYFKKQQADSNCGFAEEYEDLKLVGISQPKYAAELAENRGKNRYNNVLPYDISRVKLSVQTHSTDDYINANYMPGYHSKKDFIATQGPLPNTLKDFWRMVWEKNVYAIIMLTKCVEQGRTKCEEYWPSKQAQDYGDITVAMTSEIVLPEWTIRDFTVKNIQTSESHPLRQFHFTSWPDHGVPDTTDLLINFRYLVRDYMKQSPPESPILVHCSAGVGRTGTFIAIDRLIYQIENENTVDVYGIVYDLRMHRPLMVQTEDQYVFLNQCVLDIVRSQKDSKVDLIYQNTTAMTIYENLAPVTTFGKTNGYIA

SMILES | inhibition [%]
O=C(O)c1ccc(O)c(N2C(=O)Nc3ccccc3N2O)c1 | 82
O=C(O)c1ccc([O-])cn1.OO.OO.[K+].[K+].[O]=[V] | 99
OO.OO.[K+].[O]=[V].c1ccc(-c2ccccn2)nc1 | 98
O=C(O)c1ccc(O)cn1.OO.[O]=[V] | 92
O=C1NC(=S)S/C1=C\C=C\c1ccc([N+](=O)[O-])o1 | 50
Cc1c(Cl)c(C)c([N+](=O)[O-])c(O)c1C=Nc1ccc(O)cc1C(=O)O | 95
COc1ccc(-c2nc3cc(N=Cc4cc(C(=O)O)ccc4O)ccc3o2)cc1 | 67
O=C(O)c1ccc(O)c(C=Nc2ccc3oc(-c4ccccc4)nc3c2)c1 | 52
Cc1ccc(N=Cc2cc(C(=O)O)ccc2O)c(O)c1 | 55
CN(N=O)c1ccc(O)c(O)c1 | 97
O=C([O-])c1ccccn1.OO.OO.[K+].[K+].[O]=[V] | 100
[NH-]CO.[NH-]CO.[NH-]CO.[NH-]CO.[O]=[V][O][V]=[O] | 100
CC(C)(c1ccc(NS(=O)(=O)C(F)(F)F)cc1)c1ccc(C(C)(C)c2ccc(NS(=O)(=O)C(F)(F)F)cc2)cc1 | 66
